Experimental data published in patent publication US9072751B2, “Na/K-ATPase ligand” (priority 2006, dated 2015).
Where two headings read alike, the source gives them in different places.

What was measured:
[1] = tested on: isolated cardiac fibroblasts; format: cell-based, rat; conditions: 24 hours
Experimental: (§1) Preparation of adult rat cardiac fibroblasts was performed as described previously by Brilla et al. with modifications.
Western blot analysis was performed on protein isolated from tissue homogenates, cell culture whole cell lysates, or nuclear extracts as described previously.
(§2) Representative Western blot for procollagen and quantitative densitometric data obtained in response to different doses of (a) MBG (all N=10), (b) MBG 10 nM contrasted with different doses of ouabain (0.1 to 100 nM) and digoxin (10 nM; all N=8). c, ouabain sensitive Rb uptake as a function of MBG and ouabain concentration (N=4 at each concentration for both MBG and ouabain; data expressed as fraction of control). d, relative proline incorporation in the supernatant and matrix, both will and without collagenase digestion (total). Each group (controls and different doses of MBG) contains N=7 replicants. The difference between the total and after collagenase digestion is reported as collagen. The matrix is the sample that was obtained after removing supernatant and scraping the culture dish. e, mRNA for collagen 1 in MBG-treated (10 nM; N=8) or control (N=8) fibroblasts. f, procollagen stability after cycloheximide treatment. Time 0 is 1 hour after incubation with cycloheximide (20 μg/mL). […] Least-square regression line fit to control (CTL) and MBG data. Bars on quantitative graphs represent the mean.+−.SEM. *P<0.05 and **P<0.01 vs control.
(§3) The PP2, herbimycin AG1478, and N-acetyl cysteine were administered from 2 hours before the addition of MBG and continued throughout the 24 hours of MBG incubation (total of 26 hours). Each bar represents the mean.+−.SEM of n=8 experiments. b, effects of PP2 (1 μmol/L) and N-acetyle cysteine (2.5 mmol/L) on MBG (10 nM)-stimulated proline incorporation into collagen. Again, the PP2 an N-acetyl cysteine were added 2 hours before exposure to MBG. Each bar represents the mean.+−.SEM of N=5 experiments. c, effects of MBG 10 nM on procollagen content in SYF and SYF+ cells. Representative Western blots are shown above quantitative data. SYF blots loaded with 15 μg of protein and SYF+blots loaded with 10 μg of protein. Each bar represents the mean.+−SEM of N-6 determinations In each group. **[…] vs. control.
(§4) The effect of 24 hours of MBG (1 and 10 nM) on TGF-β, Smad 2/3, Smad 4, and pSmad 2/3 expression determined by Western blot. b and c, effects of 24 hours of MBG (10 nM), TGFβ(5 ng/mL), and the TGF-β receptor antagonist SB431542 ([…] on procollagen-1 expression (Western blot) and radiolabeled proline incorporation, respectively also were carried out. SB431542 was added 2 hours before exposure to either TGFβ or MBG (total of 26-hour exposure). Each bar represents the mean.+−.SEM of 6 to 8 determinations. *P<0.05, **P<0.01 vs. control.

Na/K-ATPase = molecular target: T1, Na/K-ATPase (Rattus norvegicus, UniProt P06685); assay: Ouabain sensitive 86Rb uptake in cardiac fibroblasts; format: cell-based
T1 construct: In vitro studies were then pursued with cultured isolated cardiac fibroblasts; endogenous in cells; host or cells: primary isolated cardiac fibroblasts in culture
Experimental: (§5) To further examine the molecular basis of this cardiac fibrosis, isolated cardiac fibroblasts were subjected to increase doses of MBG (10^−10, 10^−9, and 10^−8 M). […] Using collagenase digestion, we observed that the vast majority of the proline incorporation was into collagen. Using standardized RT-PCR, we observed a doubling of mRNA for collagen-1 at 24 hours in response to 10 nM of MBG.
(§6) Representative Western blot for procollagen and quantitative densitometric data obtained in response to different doses of (a) MBG (all N=10), (b) MBG 10 nM contrasted with different doses of ouabain (0.1 to 100 nM) and digoxin (10 nM; all N=8). c, ouabain sensitive Rb uptake as a function of MBG and ouabain concentration (N=4 at each concentration for both MBG and ouabain; data expressed as fraction of control). d, relative proline incorporation in the supernatant and matrix, both will and without collagenase digestion (total). Each group (controls and different doses of MBG) contains N=7 replicants. The difference between the total and after collagenase digestion is reported as collagen. […] Bars on quantitative graphs represent the mean.+−.SEM. *P<0.05 and **P<0.01 vs control.

dermal fibroblasts = assay: Collagen expression in human dermal fibroblasts; format: cell-based; conditions: 5 or 10 nM
Text: We next examined whether skin fibroblasts lines had similar response. This was done with dermal fibroblasts kindly provided by Dr. Bashar Kahaleh. […] The magnitude of this response is illustrated by comparison to maximal doses of TGFβ, the “classic” stimulus for fibrosis (see below). In addition, we observed that an immortalized fibroblast line responded similarly to MBG, ouabain and digoxin.
Response of dermal fibroblasts to MBG as compared with TGF beta. Note that increase in collagen expression in MBG is approximately 10 fold with 5 or 10 nM MBG.

SYF+Src line = assay: In vitro wound healing (scrape injury) in SYF+Src fibroblasts; format: cell-based, mouse; conditions: 12 hour pretreatment
Experimental: Next, we examined whether wound healing might be advantageously impacted by cardiotonic steroids. We grew a mouse fibroblast cell line, the SYF+Src line to confluence and make injuries by scraping with a pipette tip.
Representative images from fibroblasts at 3, 7 and 12 hours following injury. Quantification of wound closure from fibroblast cultures. Data represents N=6 separate pairs of experiments, each of which involves 3 determinations at each time point. Data shown as mean+/−SEM. **<0.01. We proposed to enhance skin fibroblast collagen production by topical or injected administration of cardiotonic steroids and prevent or reverse aging related loss of skin tone.

[2] = tested on: isolated cardiac fibroblasts; assay: Procollagen stability after cycloheximide in cardiac fibroblasts; format: cell-based, rat; conditions: 10 nM
Experimental: as §5, §6

[3] = tested on: isolated cardiac fibroblasts; assay: Radiolabeled proline incorporation into collagen (collagen synthesis) in cardiac fibroblasts; format: cell-based, rat; conditions: 10^−9 and 10^−8 M
Experimental: as §1
Collagen synthesis rates were determined by the method of Nishida et al. with modification.
as §5, §2
as §3, with “The effects of PP2 (1 μmol/L), herbimycin (1 μmol/L), AG1478 (250 nM), and N-acetyl cysteine (2.5 mmol/L) on MBG (10 nM) stimulation of procollagen expression also were found. The” for “The”
as §4

In the case of `C[C@]12CC[C@H](O)C[C@@]1(O)CC[C@@H]1[C@@H]2CC[C@]2(C)[C@@H](c3ccc(=O)oc3)C[C@H]3O[C@]132` [MBG, marinobufagenin], the “Increase of procollagen content (Western blot)” value ([1]; 10^−8 M) is reported as “about 2 fold”, the “Increase of procollagen content (Western blot)” value ([1]; 10^−9 M) is reported as “about 2 fold” and the “Threshold for inducing collagen expression relative to doses with detectable effects on 86Rb uptake” value (Na/K-ATPase) is reported as “log units below”. The “Increase in collagen expression” value (dermal fibroblasts) was “approximately 10 fold”, the “Closure of the experimental lesion” value (SYF+Src line) was “markedly accelerated” and the “Procollagen stability (procollagen-1 expression after cycloheximide)” value [2] was “did not detect any increases”. The “Proline incorporation into total protein, matrix and supernatant” value [3] was “significant increases”.
